From patent publication US10500198B2, “Bis-benzylidine piperidone proteasome inhibitor with anticancer activity” (The Johns Hopkins University, priority 2013, dated 2019)

Test system: NCI-H929 cells
Assay: Active caspase-3 by FACS
Assay type: cell-based, human
Conditions: 0.5 μM, 8 h
Method: NCI-H929 cells were treated with RA195 (0.5 μM) and Bz(0.5 μM) for the period of 8 h. Cells were stained for PE-conjugated Caspase-3 antibody and measured active caspase-3 by FACS.

Cl.NCCCC[C@H](NC(=O)OCC1c2ccccc2-c2ccccc21)C(=O)N1C/C(=C\c2ccc(Cl)c(Cl)c2)C(=O)/C(=C/c2ccc(Cl)c(Cl)c2)C1 [RA195]
active caspase-3: caused an increase in caspase-3 expression
